In brackets after ≈: the same amount, converted by molar mass. Activity calls are given as the source filed them. No cut-off for these calls is given here.
Columns and labels:
Escherichia coli [1] = test: Antibacterial activity against Escherichia coli at 1.6125 ug/ml after 16 hr by serial dilution method; type: functional, organism-based
Staphylococcus aureus [2] = test: Antibacterial activity against Staphylococcus aureus after 16 hr by serial dilution method; type: functional
Pseudomonas aeruginosa [3] = test: Antibacterial activity against Pseudomonas aeruginosa after 16 hr by serial dilution method; type: functional
Bacillus subtilis [4] = test: Antibacterial activity against Bacillus subtilis at 1.6125 ug/ml after 16 hr by serial dilution method; type: functional, organism-based
Bacillus subtilis [5] = test: Antibacterial activity against Bacillus subtilis after 16 hr by serial dilution method; type: functional
Escherichia coli [6] = test: Antibacterial activity against Escherichia coli after 16 hr by serial dilution method; type: functional
Staphylococcus aureus [7] = test: Antibacterial activity against Staphylococcus aureus at 1.6125 ug/ml after 16 hr by serial dilution method; type: functional, organism-based
Pseudomonas aeruginosa [8] = test: Antibacterial activity against Pseudomonas aeruginosa at 1.6125 ug/ml after 16 hr by serial dilution method; type: functional, organism-based

| SMILES | Activity (Escherichia coli [1]) | MIC (Staphylococcus aureus [2]) [µg/mL] | MIC (Pseudomonas aeruginosa [3]) [µg/mL] | Activity (Bacillus subtilis [4]) | MIC (Bacillus subtilis [5]) [µg/mL] | MIC (Escherichia coli [6]) [µg/mL] | Activity (Staphylococcus aureus [7]) | Activity (Pseudomonas aeruginosa [8]) |
| --- | --- | --- | --- | --- | --- | --- | --- | --- |
| CCOC(=O)c1cnn(-c2ccc(C(=O)O)cc2)c1-c1ccccc1 | inactive | 50 (≈ 149 µM) | 25 (≈ 74.3 µM) | inactive | – | – | – | – |
| CCOC(=O)c1cnn(-c2ccc(F)cc2)c1-c1ccccc1 | – | 6.25 (≈ 20.1 µM) | 1.61 (≈ 5.2 µM) | – | 3.12 (≈ 10.1 µM) | 1.61 (≈ 5.2 µM) | – | – |
| CCOC(=O)c1cnn(-c2ccc(Cl)cc2Cl)c1-c1ccccc1 | – | 1.61 (≈ 4.47 µM) | 3.25 (≈ 9 µM) | – | 1.61 (≈ 4.47 µM) | 1.61 (≈ 4.47 µM) | – | – |
| CCOC(=O)c1cnn(C(C)(C)C)c1-c1ccccc1 | inactive | – | – | inactive | – | – | inactive | inactive |
| CCOC(=O)c1cnn(C2CCCCC2)c1-c1ccccc1 | – | 6.25 (≈ 20.9 µM) | 6.25 (≈ 20.9 µM) | – | 6.25 (≈ 20.9 µM) | 12.5 (≈ 41.9 µM) | – | – |
| CCOC(=O)c1cnn(C)c1-c1ccccc1 | inactive | – | – | inactive | – | – | inactive | inactive |
| CCOC(=O)c1cnn(-c2ccc(C)cc2)c1-c1ccccc1 | inactive | – | – | inactive | – | – | inactive | inactive |
| CCOC(=O)c1cnn(C2CCNCC2)c1-c1ccccc1 | – | 3.12 (≈ 10.4 µM) | 1.61 (≈ 5.39 µM) | – | 3.12 (≈ 10.4 µM) | 1.61 (≈ 5.39 µM) | – | – |
| CCOC(=O)c1cnn(-c2ccccc2Br)c1-c1ccccc1 | – | 3.12 (≈ 8.42 µM) | 1.61 (≈ 4.34 µM) | – | 1.61 (≈ 4.34 µM) | 1.61 (≈ 4.34 µM) | – | – |
| CO/N=C(\C(=O)N[C@@H]1C(=O)N2C(C(=O)O)=C(CSc3nc(=O)c(O)nn3C)CS[C@H]12)c1csc(N)n1 [CEFTRIAXONE] | – | 3.12 (≈ 5.63 µM) | 1.61 (≈ 2.91 µM) | – | 1.61 (≈ 2.91 µM) | 1.61 (≈ 2.91 µM) | – | – |
| CCOC(=O)c1cnn(-c2ccc3ccccc3n2)c1-c1ccccc1 | – | 3.12 (≈ 9.1 µM) | 3.12 (≈ 9.1 µM) | – | 3.12 (≈ 9.1 µM) | 6.25 (≈ 18.2 µM) | – | – |
| CCOC(=O)c1cnn(-c2ccc(C(C)(C)C)cc2)c1-c1ccccc1 | inactive | – | 12.5 (≈ 35.9 µM) | – | 12.5 (≈ 35.9 µM) | – | inactive | – |
| CCOC(=O)c1cnn(-c2ccc(C(F)(F)F)cc2)c1-c1ccccc1 | – | 3.12 (≈ 8.67 µM) | 1.61 (≈ 4.48 µM) | – | 1.61 (≈ 4.48 µM) | 1.61 (≈ 4.48 µM) | – | – |

— ChEMBL document CHEMBL3046750, “Synthesis, characterization and antimicrobial activity of novel ethyl 1-(N-substituted)-5-phenyl-1H-pyrazole-4-carboxylate derivatives” (2012)
